Data reported in patent US7365231B2, “Compound with antitumor activity and preparation method therefor” (National Taiwan University of Science & Technology, priority 2005, dated 2008).

What was measured:
DU-145 = test: NCI panel growth inhibition, sulforhodamine B; assay type: cell-based; conditions: Homo sapiens; DU-145, Prostate cancer; drug for last 48 h of 72 h
Description: (§1) Comparison of anticancer activities of the 1,3-substituted adamantane derivatives, 1,3-bis(4-aminophenyl)adamantane (1,3-DPANH2), 1,3-bis(4-(4-aminophenoxy)phenyl)adamantane (1,3-DPAONH2), 1,3-bis(4-(4-amino-3-hydroxy)phenyl)adamantane (1,3-DPA/OH/NH2) and 1,3-bis(4-(4-amino-2-trifluoromethylphenoxy)phenyl)adamantane (1,3-DPA/CF3/NH2) as shown in FIG. 1 were synthesized in the present invention. Those compounds were submitted to the National Cancer Institute for anticancer assay in culture against a standard panel of cell lines. […] To further confirm that the different substituents (CF3 and OH) on the phenyl ring of 1,3-DPAONH2 affect the growth inhibition of cancer cells. […] The transformations of 1,3-DPAONH2 to 1,3-DPA/OH/NH2 led to a remarked enhancement of anticancer activity toward all the tested cancer lines. The role of the OH group at the ortho position of the NH2 on growth inhibition is remarkable. In addition, one compound (1,3-DPA/OH/NH2) was confirmed to have an IC50 of <1 μM against one of the cells (BT-549 breast carcinoma). Comparison of anticancer activities of 1,3-substituted diaminophenyladamantane derivatives, the following order of potency against the tested cancer lines was observed: 1,3-DPA/OH/NH2>1,3-DPAONH2>1,3-DPANH2>1,3-DPA/CF3/NH2.

HCT-15 = test: NCI panel growth inhibition, sulforhodamine B; assay type: cell-based; conditions: Homo sapiens; HCT-15, Colon cancer; drug for last 48 h of 72 h
Description: as §1

HOP-62 = test: NCI panel growth inhibition, sulforhodamine B; assay type: cell-based; conditions: Homo sapiens; HOP-62, NSCLC; drug for last 48 h of 72 h
Description: as §1

HS 578T = test: NCI panel growth inhibition, sulforhodamine B; assay type: cell-based; conditions: Homo sapiens, Breast cancer, drug for last 48 h of 72 h
Description: as §1

HT29 = test: NCI panel growth inhibition, sulforhodamine B; assay type: cell-based; conditions: Homo sapiens, HT-29; HT29, Colon cancer; drug for last 48 h of 72 h
Description: as §1

LOX IMVI = test: NCI panel growth inhibition, sulforhodamine B; assay type: cell-based; conditions: Homo sapiens, Melanoma, drug for last 48 h of 72 h
Description: as §1

MALME-3M = test: NCI panel growth inhibition, sulforhodamine B; assay type: cell-based; conditions: Homo sapiens, Melanoma, drug for last 48 h of 72 h
Description: as §1

MDA-MB-435 = test: NCI panel growth inhibition, sulforhodamine B; assay type: cell-based; conditions: Homo sapiens; MDA-MB-435, Breast cancer; drug for last 48 h of 72 h
Description: as §1

MOLT-4 = test: NCI panel growth inhibition, sulforhodamine B; assay type: cell-based; conditions: Homo sapiens; MOLT-4, Leukemia; drug for last 48 h of 72 h
Description: as §1

NCI-H322M = test: NCI panel growth inhibition, sulforhodamine B; assay type: cell-based; conditions: Homo sapiens, NSCLC, drug for last 48 h of 72 h
Description: as §1

OVCAR-3 = test: NCI panel growth inhibition, sulforhodamine B; assay type: cell-based; conditions: Homo sapiens; OVCAR-3, Ovarian cancer; drug for last 48 h of 72 h
Description: as §1

OVCAR-5 = test: NCI panel growth inhibition, sulforhodamine B; assay type: cell-based; conditions: Homo sapiens; OVCAR-5, Ovarian cancer; drug for last 48 h of 72 h
Description: as §1

RPMI-8226 = test: NCI panel growth inhibition, sulforhodamine B; assay type: cell-based; conditions: Homo sapiens; RPMI-8226, Leukemia; drug for last 48 h of 72 h
Description: as §1

RXF-393 = test: NCI panel growth inhibition, sulforhodamine B; assay type: cell-based; conditions: Homo sapiens; RXF-393, Renal cancer; drug for last 48 h of 72 h
Description: as §1

SK-MEL-2 = test: NCI panel growth inhibition, sulforhodamine B; assay type: cell-based; conditions: Homo sapiens; SK-MEL-2, Melanoma; drug for last 48 h of 72 h
Description: as §1

SK-MEL-5 = test: NCI panel growth inhibition, sulforhodamine B; assay type: cell-based; conditions: Homo sapiens; SK-MEL-5, Melanoma; drug for last 48 h of 72 h
Description: as §1

T-47D = test: NCI panel growth inhibition, sulforhodamine B; assay type: cell-based; conditions: Homo sapiens, T47D, Breast cancer, drug for last 48 h of 72 h
Description: as §1

U251 = test: NCI panel growth inhibition, sulforhodamine B; assay type: cell-based; conditions: Homo sapiens, U-251; U251, CNS cancer; drug for last 48 h of 72 h
Description: as §1

UO-31 = test: NCI panel growth inhibition, sulforhodamine B; assay type: cell-based; conditions: Homo sapiens; UO-31, Renal cancer; drug for last 48 h of 72 h
Description: as §1

BT-549 = test: NCI panel growth inhibition, sulforhodamine B; assay type: cell-based, human; conditions: drug for last 48 h of 72 h
Description: as §1

NCI/ADR-RES = test: NCI panel growth inhibition, sulforhodamine B; assay type: cell-based, human; conditions: Breast cancer, drug for last 48 h of 72 h
Description: as §1

SF-295 = test: NCI panel growth inhibition, sulforhodamine B; assay type: cell-based, human; conditions: drug for last 48 h of 72 h
Description: as §1

[1] = tested on: NCI's human cancer cell lines; test: NCI panel growth inhibition, whole panel summary; assay type: cell-based; conditions: in vitro
Description: as §1, with “1,3-DPA/OH/NH2>1,3-DPAONH2>1,3-DPANH2>1,3-DPA/CF3/NH2. […]” for “1,3-DPA/OH/NH2>1,3-DPAONH2>1,3-DPANH2>1,3-DPA/CF3/NH2.”

[2] = Homo sapiens, BT-549, BT-549, Breast cancer
[3] = Homo sapiens, SF-295, SF-295, CNS cancer

Structure (SMILES) | IC50 (DU-145) | IC50 (HCT-15) | IC50 (HOP-62) | IC50 (HS 578T) | IC50 (HT29) | IC50 (LOX IMVI) | IC50 (MALME-3M) | IC50 (MDA-MB-435) | IC50 (MOLT-4) | IC50 (NCI-H322M) | IC50 (OVCAR-3) | IC50 (OVCAR-5) | IC50 (RPMI-8226) | IC50 (SK-MEL-2) | IC50 (SK-MEL-5) | IC50 (U251) | IC50 (UO-31) | IC50 (BT-549; [2]) | IC50 (NCI/ADR-RES; Homo sapiens) | IC50 (SF-295; [3]) | further results
Nc1ccc(Oc2ccc(C34CC5CC(C3)CC(c3ccc(Oc6ccc(N)cc6)cc3)(C5)C4)cc2)cc1 [1,3-DPAONH2, 1,3-bis(4-(4-aminophenoxy)phenyl)adamantane] | 6.41 µM | 4.99 µM | 10.7 µM | 11.7 µM | 7.12 µM | 2.44 µM | 14.6 µM | 5.22 µM | 3.81 µM | 8.84 µM | 3.08 µM | 19.1 µM | 4.14 µM | 15.7 µM | 13.8 µM | 7.9 µM | 13.6 µM | 4.02 µM | 8.59 µM | 6.91 µM | IC50 (RXF-393): 7.78 µM; IC50 (T-47D): 5.67 µM
Nc1ccc(Oc2ccc(C3(c4ccc(Oc5ccc(N)cc5)cc4)C4CC5CC(C4)CC3C5)cc2)cc1 [2,2-DPAONH2, 2,2-bis(4-(4-aminophenoxy)phenyl)adamantane] | 3.31 µM | 4.94 µM | 11.8 µM | 4.91 µM | 2.96 µM | 2.75 µM | 13.6 µM | 6.04 µM | 4.27 µM | 0.184 µM | 2.58 µM | 15.3 µM | 3.01 µM | 16.8 µM | 8.38 µM | 2.81 µM | 3.02 µM | 4.28 µM | 15.8 µM | 6.76 µM | 
Nc1ccc(C2(c3ccc(N)cc3)C3CC4CC(C3)CC2C4)cc1 [2,2-DPANH2, 2,2-bis(4-aminophenyl)adamantane] |  | 21.9 µM | 13.6 µM |  | 0.1 µM | 16.2 µM |  | 14.7 µM | 4.96 µM |  | 10.9 µM | 15.8 µM |  | 18.5 µM |  | 18.6 µM | 18.3 µM | 11.2 µM | < 0.1 µM | < 0.1 µM | IC50 (RXF-393): 2.74 µM; IC50 (T-47D): 14.4 µM; IC50 (NCI/ADR-RES): 0.079 µM; IC50 (SF-295; SF-295, CNS cancer): 0.059 µM
Nc1ccc(C23CC4CC(C2)CC(c2ccc(N)cc2)(C4)C3)cc1 [1,3-DPANH2, 1,3-bis(4-aminophenyl)adamantane] | 51.2 µM | 14.5 µM | 60 µM |  |  | > 100 µM |  |  | 11.3 µM |  | 48.5 µM | 27.6 µM | 10.7 µM | 35.9 µM | 13.1 µM | 14.3 µM | 4.87 µM | 42.8 µM | 56.8 µM | 16.4 µM | 
Nc1ccc(Oc2ccc(C34CC5CC(C3)CC(c3ccc(Oc6ccc(N)cc6C(F)(F)F)cc3)(C5)C4)cc2)c(C(F)(F)F)c1 [1,3-DPA/CF3/NH2, 1,3-bis-(4-(4-amino-2-trifluoromethylphenoxy)phenyl)adamantane] | 35.2 µM | 31.8 µM | 18.2 µM | 17.1 µM | 17.2 µM | 17.9 µM | 22.2 µM | 24.2 µM | 35.7 µM | 20.1 µM | 17.9 µM | 27 µM |  | 14.1 µM | 22 µM | 14.5 µM | 39.1 µM | 21.9 µM | 21.7 µM | 25.3 µM | IC50 (RXF-393): 11.1 µM; IC50 (T-47D): 15.1 µM
Nc1ccc(Oc2ccc(C34CC5CC(C3)CC(c3ccc(Oc6ccc(N)c(O)c6)cc3)(C5)C4)cc2)cc1O [1,3-DPA/OH/NH2, 1,3-bis-(4-(4-amino-3-hydroxyphenoxy)phenyl)adamantane] | 1.72 µM | 1.76 µM | 5.53 µM | 1.63 µM |  | 1.64 µM | 1.93 µM | 1.92 µM | 2.42 µM | 1.26 µM | 1.85 µM |  | 2.54 µM | 2.45 µM | 1.88 µM | 1.3 µM | 1.95 µM | < 1 µM | 2.32 µM | 2.29 µM | IC50 (RXF-393): 1.61 µM; IC50 (T-47D): 1.66 µM; IC50 (BT-549; BT-549, Breast cancer): 0.565 µM; growth inhibitory activity against the tested cancer cell lines (in words) [1]: strong growth inhibitory activities
